These are literature values, as cited in patent US6638906B1, “Amphiphilic polymers and polypeptide conjugates comprising same” (Nobex Corporation, priority 1999, dated 2003).

One data set relates to native CCK cells. The settings on record: versus vehicle/basal secretion.
Another data set deals with food intake. The settings on record: infused into the duodenum of rats with trypsin inhibitors.
Data set [1] has as its system pancreatic protein output. The settings on record: infused into the duodenum of rats.
The subject of a further data set is CCK release. The settings on record: relative to LCRF.

For “luminal cholecystokinin releasing factor [Native LCRF]”, the “increase in CCK secretion” value in the data set with native CCK cells and with STC-1 cells was roughly 300% throughout. Further, in the data set on food intake, the “effect on food intake” value is listed as “causes a reduction of food intake”. Also, in data set [1], the “dose-response of pancreatic protein output” value is given as “biphasic dose-response of curve of pancreatic protein output is observed, with higher doses of LCRF leading to decreased pancreatic protein output”.

B1: diazepan binding inhibitor: peptide secreted into the intestines found to stimulate CCK release (protein, UniProt P07108 2-87, looked up)
Acyl-CoA-binding protein: SQAEFEKAAEEVRHLKTKPSDEEMLFIYGHYKQATVGDINTERPGMLDFTGKAKWDAWNELKGTSKEDAMKAYINKVEELKKKYGI
Take B1: the “potency for stimulating CCK release, fold less than LCRF” value with CCK release was 100-1,000 fold.

B2: monitor peptide: peptide secreted into the intestines that controls CCK release by positive feedback regulation (protein, UniProt P09655 19-79, looked up)
Serine protease inhibitor …: GNPPAEVNGKTPNCPKQIMGCPRIYDPVCGTNGITYPSECSLCFENRKFGTSIHIQRRGTC
B2: in the data set on CCK release, the “potency for stimulating CCK release, fold less than LCRF” value is given as 6 fold.
